Assay results from US20040037022A1, “Aminoalcohol derivatives” (priority 2000, published 2004).

How the values were obtained:
anesthetized dog = assay: Effect on the increase in intravesical pressure induced by carbachol in anesthetized dog; format: in vivo; details: 0.32 mg/kg by intra-duodena route 30 minutes before carbachol (1.8 μg/kg); female Beagle dogs under halothane anesthesia; N = 2; Control 7.0 ± 1.0
Experimental: Effect on the increase in intravesical pressure induced by carbachol in anesthetized dog
Female Beagle dogs weighing 8.0-15.0 kg were fasted for 24 hours and maintained under halothane anesthesia. A 12F Foley catheter was lubricated with water soluble jelly, inserted into the urethral orifice and advanced approximately 10 cm until the balloon tip was placed well inside the bladder. The balloon was then inflated with 5 ml of room air and catheter slowly withdrawn just part the first resistance that is felt at the bladder neck. Urine was completely drained out through the catheter, and 30 ml of biological saline was infused. The catheter was connected to pressure transducer, and intravesical pressure was continuously recorded. The test compound was injected by intra-duodena route at 30 minutes before the administration of carbachol (1.8 μg/kg).

Question: With `O=C(Nc1ccc(C[C@@H](CO)NC[C@H](O)COc2ccccc2)cc1)c1ccccc1` [4-(2), N-[4-[(2S)-3-Hydroxy-2-[[(2S)-2-hydroxy-3-phenoxypropyl)amino]propyl]phenyl)benzamide] as the compound, how does the melting point read?
Answer: 124 to 125 °C

Question: With `CN(C(=O)c1ccccc1)c1ccc(C[C@@H](CO)NC[C@H](O)COc2ccccc2)cc1` [4-(11), N-[4-[(2S)-3-Hydroxy-2-[[(2S)-2-hydroxy-3-phenoxypropyl]amino]propyl]phenyl]-N-methylbenzamide] as the compound, how does the melting point read?
Answer: 115 to 116 °C

Question: For `O=C(Nc1ccc(C[C@@H](CO)NC[C@H](O)COc2ccccc2)cc1)c1ccc[nH]1` [Test Compound (1), N-[4-[(2S)-3-Hydroxy-2-[[(2S)-2-hydroxy-3-phenoxypropyl)amino]propyl]phenyl]-1H-pyrrole-2-carboxamide], which “Increase in intravesical pressure” value (anesthetized dog) is on record?
Answer: 2.6 ± 0.05 mmHg

Question: With `CCNC(=O)Nc1ccc(C[C@@H](CO)NC[C@H](O)COc2ccccc2)cc1` [Example 2, N-ethyl-N′-[4-[(2S)-3-hydroxy-2-[[(2S)-2-hydroxy-3-phenoxypropyl]amino]-propyl]phenyl]urea] as the compound, how does the melting point read?
Answer: 129 to 130 °C
